Experimental data published in Sander's compilation of Henry's law constants.
Several values for one entry are separate records, joined by “and”; a condition that tells them apart may be missing. Identical values can stand only once.

Experiment: Henry solubility constant Hcp at 298.15 K (mol/(m3 Pa))
[1] = reference: Chang and Criddle (1995)
[2] = reference: Rochester and Symonds (1973)
[3] = reference: Bobadilla et al. (2003)
[4] = reference: Butler and Ramchandani (1935)
[5] = reference: Brockbank et al. (2013)
[6] = reference: Kuramochi et al. (2004)
[7] = reference: Drouillard et al. (1998)
[8] = reference: Warner et al. (1980)
[9] = reference: Ondo and Dohnal (2007)
[10] = reference: Sarraute et al. (2006)
[11] = reference: Christie and Crisp (1967)
[12] = reference: Shunthirasingham et al. (2013)
[13] = reference: Schwarz and Wasik (1977)
[14] = reference: Dohnal and Fenclová (1995)
[15] = reference: Feigenbrugel et al. (2004b)
[16] = reference: Parsons et al. (1972)
[17] = reference: Copolovici and Niinemets (2005)

For `COP(=O)(OC)C(O)C(Cl)(Cl)Cl` (stereo unspecified), which “Henry solubility constant Hcp” value (reference: Kawamoto and Urano (1989)) is on record?
The value was > 810.

For `C[C@@H]1CCCC[C@H]1C` (relative stereo) [trans-1,2-dimethylcyclohexane], which “Henry solubility constant Hcp” value (reference: Dohányosová et al. (2004)) is on record?
The value was 1.6e-05.

For `FC(C(F)(F)F)C(F)(F)F` [1,1,1,2,3,3,3-heptafluoropropane], which “Henry solubility constant Hcp” value (reference: Reichl (1995)) is on record?
The value was 1.4e-05.

Which “Henry solubility constant Hcp” value [1] does the source give for `FCC(F)(F)F` [1,1,1,2-tetrafluoroethane] here?
Its value is 0.00019.

And the “Henry solubility constant Hcp” value (reference: Maaßen (1995))?
The value was 0.00016.

And the “Henry solubility constant Hcp” value (reference: Reichl (1995))?
The value was 0.00016.

And the “Henry solubility constant Hcp” value (reference: Zheng et al. (1997))?
The value was 0.00016.

Which “Henry solubility constant Hcp” value [2] does the source give for `OC(C(F)(F)F)C(F)(F)F` [1,1,1,3,3,3-hexafluoro-2-propanol] here?
Its value is 0.24.

With `CC(O)C(F)(F)F` (stereo unspecified) [1,1,1-trifluoro-2-propanol] as the molecule, how does the “Henry solubility constant Hcp” value [2] read?
Its value is 0.45.

With `CC(=O)C(F)(F)F` [1,1,1-trifluoro-2-propanone] as the molecule, how does the “Henry solubility constant Hcp” value (reference: Betterton (1991)) read?
The value was 1.4.

For `BrC(Br)C(Br)Br` [1,1,2,2-tetrabromoethane], which “Henry solubility constant Hcp” value (reference: Khalfaoui and Newsham (1994a)) is on record?
Its value is 0.01.

For `OCCC(F)(F)C(F)(F)C(F)(F)C(F)(F)C(F)(F)C(F)(F)C(F)(F)C(F)(F)C(F)(F)C(F)(F)F` [1,1,2,2-tetrahydroperfluoro dodecanol], which “Henry solubility constant Hcp” value (reference: Wu and Chang (2011)) is on record?
Its value is 0.00013.

Which “Henry solubility constant Hcp” value [3] does the source give for `ClCC(Cl)Cl` [1,1,2-trichloroethane] here?
Its value is 0.012.

Which “Henry solubility constant Hcp” value (reference: Kutsuna (2013)) does the source give for `CC(F)(Cl)Cl` [1,1-dichloro-1-fluoroethane] here?
Its value is 0.00029.

And the “Henry solubility constant Hcp” value (reference: Maaßen (1995))?
Its value is 0.00028.

Which “Henry solubility constant Hcp” value (reference: Jantunen and Bidleman (2006)) does the source give for `ClC(Cl)=C(c1ccc(Cl)cc1)c1ccc(Cl)cc1` [1,1-dichloro-2,2-bis-(4-chlorophenyl)-ethene] here?
The value was 0.029.

Which results are given for `CC(F)F` [1,1-difluoroethane]?
Henry solubility constant Hcp (reference: Maaßen (1995)): 0.0005; Henry solubility constant Hcp (reference: Reichl (1995)): 0.00049; Henry solubility constant Hcp (reference: Zheng et al. (1997)): 0.00049

With `Clc1c(Cl)c(Cl)c2c(c1Cl)Oc1ccccc1O2` [1,2,3,4-tetrachlorodibenzo-p-dioxin] as the molecule, how does the “Henry solubility constant Hcp” value (reference: Santl et al. (1994)) read?
Its value is 0.5.

Which “Henry solubility constant Hcp” value [4] does the source give for `OCC(O)CO` [1,2,3-propanetriol] here?
The value was 580.

With `Clc1cccc(Cl)c1Cl` [1,2,3-trichlorobenzene] as the molecule, how does the “Henry solubility constant Hcp” value [5] read?
Its value is 0.0063.

Which “Henry solubility constant Hcp” value (reference: Tancrède and Yanagisawa (1990)) does the source give for `ClCC(Cl)CCl` [1,2,3-trichloropropane] here?
The value was 0.044.

With `Brc1cc(Br)c(Br)cc1Br` [1,2,4,5-tetrabromobenzene] as the molecule, how does the “Henry solubility constant Hcp” value [6] read?
The value was 0.0027.

With `Clc1cc(Cl)c(Cl)cc1Cl` [1,2,4,5-tetrachlorobenzene] as the molecule, how does the “Henry solubility constant Hcp” value (reference: McPhedran et al. (2013)) read?
The value was 0.018.

Which “Henry solubility constant Hcp” value [6] does the source give for `Brc1ccc(Br)c(Br)c1` [1,2,4-tribromobenzene] here?
Its value is 0.031.

For `Clc1cc(Cl)c2c(c1Cl)Oc1ccccc1O2` [1,2,4-trichlorodibenzo-p-dioxin], which “Henry solubility constant Hcp” value (reference: Santl et al. (1994)) is on record?
The value was 0.27.

Which “Henry solubility constant Hcp” value [7] does the source give for `ClCC(Cl)CCCCCCC(Cl)CCl` (stereo unspecified) [1,2,9,10-tetrachlorodecane] here?
Its value is 0.056.

Which “Henry solubility constant Hcp” value [7] does the source give for `ClCC(Cl)CCCCCCCC(Cl)CCl` (stereo unspecified) [1,2,10,11-tetrachloroundecane] here?
The value was 0.16.

Which “Henry solubility constant Hcp” value (reference: Nguyen (2013)) does the source give for `CC(N)CN` (stereo unspecified) [1,2-diaminopropane] here?
The value was 1400.

What does the source list for `CC(Cl)CCl` (stereo unspecified) [1,2-dichloropropane]?
Henry solubility constant Hcp (reference: Bissonette et al. (1990)): 0.003; Henry solubility constant Hcp [3]: 0.0042; Henry solubility constant Hcp [8]: 0.0035

Which “Henry solubility constant Hcp” value (reference: Reichl (1995)) does the source give for `FC(F)(Cl)C(F)(F)Cl` [1,2-dichlorotetrafluoroethane] here?
The value was 9e-06.

For `COCCOC` [1,2-dimethoxyethane], which “Henry solubility constant Hcp” value [9] is on record?
Its value is 1.4.

Which results are given for `CC12CCC(CC1)C(C)(C)O2` [1,3,3-trimethyl-2-oxabicyclo[2.2.2]octane]?
Henry solubility constant Hcp (reference: Amoore and Buttery (1978)): 0.12; Henry solubility constant Hcp (reference: Kish et al. (2013)): 0.059

For `COc1c(Cl)cc(Cl)cc1Cl` [1,3,5-trichloro-2-methoxybenzene], which “Henry solubility constant Hcp” value (reference: Wu et al. (2022a)) is on record?
Its value is 0.023.

For `C=CC=C` [1,3-butadiene], which “Henry solubility constant Hcp” value (reference: Ross and Hudson (1957)) is on record?
Its value is 0.00014.

For `FC(Cl)C(F)(F)C(F)(F)Cl` (stereo unspecified) [1,3-dichloro-1,1,2,2,3-pentafluoro-propane], which “Henry solubility constant Hcp” value (reference: Kutsuna (2013)) is on record?
The value was 0.00011.

For `ClC=CCCl` [1,3-dichloropropene], which “Henry solubility constant Hcp” value [8] is on record?
Its value is 0.0028.

Which “Henry solubility constant Hcp” value [9] does the source give for `C1COCO1` [1,3-dioxolane] here?
The value was 0.43.

Which “Henry solubility constant Hcp” value (reference: Nguyen (2013)) does the source give for `C1CNCCN1` [1,4-diazacyclohexane] here?
Its value is 4500.

With `Brc1ccc(Br)cc1` [1,4-dibromobenzene] as the molecule, how does the “Henry solubility constant Hcp” value [6] read?
The value was 0.0094.

With `NCCCCCCN` [1,6-hexanediamine] as the molecule, how does the “Henry solubility constant Hcp” value (reference: Nguyen (2013)) read?
Its value is 1000.

With `BrCCCCCCCCBr` [1,8-dibromooctane] as the molecule, how does the “Henry solubility constant Hcp” value [10] read?
Its value is 0.013.

With `ClCCCCCCCCCl` [1,8-dichlorooctane] as the molecule, how does the “Henry solubility constant Hcp” value [10] read?
Its value is 0.0071.

For `Cc1ccc(Br)cc1` [1-bromo-4-methylbenzene], which “Henry solubility constant Hcp” value [5] is on record?
Its value is 0.0034.

Which “Henry solubility constant Hcp” value [4] does the source give for `CCCCN` [1-butanamine] here?
Its value is 0.65.

And the “Henry solubility constant Hcp” value [11]?
The value was 0.56.

Which “Henry solubility constant Hcp” value (reference: Coquelet and Richon (2005)) does the source give for `CCCCS` [1-butanethiol] here?
Its value is 0.0015.

What about the “Henry solubility constant Hcp” value (reference: Haimi et al. (2006)) of the same molecule?
Its value is 0.0015.

For `C=CCC` [1-butene], which “Henry solubility constant Hcp” value (reference: Serra and Palavra (2003)) is on record?
The value was 4.5e-05.

With `CCCCO[N+](=O)[O-]` [1-butyl nitrate] as the molecule, how does the “Henry solubility constant Hcp” value (reference: Hauff et al. (1998)) read?
The value was 0.0063.

And the “Henry solubility constant Hcp” value (reference: Luke et al. (1989))?
The value was 0.01.

With `C#CCC` [1-butyne] as the molecule, how does the “Henry solubility constant Hcp” value (reference: Simpson and Lovell (1962)) read?
The value was 0.00072.

Which results are given for `CC(F)(F)Cl` [1-chloro-1,1-difluoroethane]?
Henry solubility constant Hcp [1]: 0.00015; Henry solubility constant Hcp (reference: Kutsuna (2013)): 0.00015; Henry solubility constant Hcp (reference: Maaßen (1995)): 0.00014; Henry solubility constant Hcp (reference: Reichl (1995)): 0.00014

Which results are given for `FC(Cl)C(F)(F)F` (stereo unspecified) [1-chloro-1,2,2,2-tetrafluoroethane]?
Henry solubility constant Hcp (reference: Kutsuna (2013)): 0.00011; Henry solubility constant Hcp (reference: Maaßen (1995)): 0.0001; Henry solubility constant Hcp (reference: Reichl (1995)): 0.00011

Which results are given for `CCCCCCCCCCO` [1-decanol]?
Henry solubility constant Hcp (reference: Lei et al. (2007)): 0.065; Henry solubility constant Hcp [12]: 0.076

Which “Henry solubility constant Hcp” value [13] does the source give for `CCc1cccc2ccccc12` [1-ethylnaphthalene] here?
The value was 0.022.

With `CCCCCCCO` [1-heptanol] as the molecule, how does the “Henry solubility constant Hcp” value (reference: Lei et al. (2007)) read?
The value was 0.36.

What about the “Henry solubility constant Hcp” value [12] of the same molecule?
Its value is 0.38.

With `CCCCCCN` [1-hexanamine] as the molecule, how does the “Henry solubility constant Hcp” value [11] read?
Its value is 0.37.

Which “Henry solubility constant Hcp” value (reference: Gupta et al. (2000)) does the source give for `CCCCCCO` [1-hexanol] here?
The value was 0.39.

What about the “Henry solubility constant Hcp” value (reference: Lei et al. (2007)) of the same molecule?
Its value is 0.51.

What about the “Henry solubility constant Hcp” value [12] of the same molecule?
The value was 0.57.

And the “Henry solubility constant Hcp” value (reference: Souchon et al. (2004))?
Its value is 0.38.

For `CCCCCCO[N+](=O)[O-]` [1-hexyl nitrate], which “Henry solubility constant Hcp” value (reference: Hauff et al. (1998)) is on record?
The value was 0.0076.

Which “Henry solubility constant Hcp” value [14] does the source give for `Cc1ccc(C)c(O)c1` [1-hydroxy-2,5-dimethylbenzene] here?
Its value is 7.5.

For `COc1ccccc1O` [1-hydroxy-2-methoxybenzene], which “Henry solubility constant Hcp” value (reference: McFall et al. (2020)) is on record?
The value was 8.6.

And the “Henry solubility constant Hcp” value (reference: Sagebiel et al. (1992))?
Its value is 7.7 and 9.1.

What about the “Henry solubility constant Hcp” value (reference: Wieland et al. (2015)) of the same molecule?
The value was 9.

Which “Henry solubility constant Hcp” value [14] does the source give for `Cc1ccccc1O` [1-hydroxy-2-methylbenzene] here?
Its value is 5.6.

And the “Henry solubility constant Hcp” value [15]?
Its value is 4.2.

And the “Henry solubility constant Hcp” value (reference: Harrison et al. (2002))?
The value was 11.

What about the “Henry solubility constant Hcp” value [16] of the same molecule?
The value was 8.2.

For `Cc1cc(C)cc(O)c1` [1-hydroxy-3,5-dimethylbenzene], which “Henry solubility constant Hcp” value [14] is on record?
The value was 16.

Which results are given for `Cc1cccc(O)c1` [1-hydroxy-3-methylbenzene]?
Henry solubility constant Hcp [14]: 12; Henry solubility constant Hcp [15]: 7.9

What does the source list for `Cc1ccc(O)cc1` [1-hydroxy-4-methylbenzene]?
Henry solubility constant Hcp [14]: 13; Henry solubility constant Hcp [15]: 10; Henry solubility constant Hcp [16]: 13

Which results are given for `CC1=CC=C(C(C)C)CC1` [1-methyl-4-(1-methylethyl)-1,3-cyclohexadiene]?
Henry solubility constant Hcp [17]: 0.00029; Henry solubility constant Hcp (reference: Schuhfried et al. (2015)): 0.00038

With `CC1=CCC(=C(C)C)CC1` [1-methyl-4-(1-methylethylidene)-cyclohexene] as the molecule, how does the “Henry solubility constant Hcp” value [17] read?
The value was 0.00038.

Which “Henry solubility constant Hcp” value [13] does the source give for `Cc1cccc2ccccc12` [1-methylnaphthalene] here?
The value was 0.028.

Which “Henry solubility constant Hcp” value (reference: Beneš and Dohnal (1999)) does the source give for `CCC[N+](=O)[O-]` [1-nitropropane] here?
Its value is 0.13.

What does the source list for `CCCCCCCCO` [1-octanol]?
Henry solubility constant Hcp (reference: Lei et al. (2007)): 0.19; Henry solubility constant Hcp [12]: 0.21; Henry solubility constant Hcp (reference: Wu et al. (2022a)): 0.17
